Common to all, as to format: biochemical
Assay [1] deals with CDK2/Cyclin A2 (Homo sapiens (Human), UniProt P24941). As to the kind of experiment: Kinase activity assay (Caliper Mobility Shift Assay), CDK2/Cyclin A2. The protocol: (§1) The inhibitory effect of compounds against the kinase CDK4/cyclin D3 was detected by Caliper Mobility Shift Assay method. The final concentration of the compounds to be tested was set at 10 concentrations starting from 1 uM by 3-fold serial dilution. 5 μL of compounds at 5-fold final concentration and 10 μL of CDK4/cyclin D3 kinase solution at a final concentration of 10 nM was added to a 384-well reaction plate, respectively. The plate was pre-incubated for 10 min at room temperature (with negative control wells containing 10 uL of kinase buffer and 5 uL of 5% DMSO; positive control wells containing 10 μL of kinase solution and 5 uL of 5% DMSO). The reaction was initiated by adding 10 μL of ATP at a final concentration of 250 uM and the corresponding substrate peptide mixture at room temperature for 150 minutes. 30 uL of stop detection solution containing EDTA was added to stop the kinase reaction. Caliper EZ Reader was used to read the conversion rate. Conversion inhibition rate %=(average conversion rate of positive control %−conversion rate of sample %)/(average conversion rate of positive control %−average conversion rate of negative control %). wherein: negative control wells represent the conversion rate readings of wells without enzymatic activity; positive control wells represent conversion readings for wells with no compound inhibition. The log(inhibitor) vs. response—Variable slope of the analysis software GraphPad Prism 5 was used with log concentration value as the X-axis and the percent inhibition rate as the Y-axis to fit the dose-response curve, the IC50 value of each compound on the enzyme activity was thus obtained. Calculation formula: Y=Bottom+(Top−Bottom)/(1+10^((Log IC50−X)*HillSlope)).
(§2) The IC50 values and inhibitory activities of compounds of the present disclosure on CDK6/Cyclin D3, CDK2/Cyclin A2, and CDK9/cyclin T1 were tested in a similar manner.

The target of assay [2] is CDK4/cyclin D3 (Homo sapiens (Human), UniProt P11802). The assay is described as follows: Kinase activity assay (Caliper Mobility Shift Assay), CDK4/cyclin D3. Conditions: 10 nM kinase, 250 uM ATP. How it is done:
as §1

The target of assay [3] is CDK6/Cyclin D3 (Homo sapiens (Human), UniProt Q00534). As to the kind of experiment: Kinase activity assay (Caliper Mobility Shift Assay), CDK6/Cyclin D3. How it is done: as §1, §2
CDK6/Cyclin D3, sequence (Q00534 whole entry, species assumed): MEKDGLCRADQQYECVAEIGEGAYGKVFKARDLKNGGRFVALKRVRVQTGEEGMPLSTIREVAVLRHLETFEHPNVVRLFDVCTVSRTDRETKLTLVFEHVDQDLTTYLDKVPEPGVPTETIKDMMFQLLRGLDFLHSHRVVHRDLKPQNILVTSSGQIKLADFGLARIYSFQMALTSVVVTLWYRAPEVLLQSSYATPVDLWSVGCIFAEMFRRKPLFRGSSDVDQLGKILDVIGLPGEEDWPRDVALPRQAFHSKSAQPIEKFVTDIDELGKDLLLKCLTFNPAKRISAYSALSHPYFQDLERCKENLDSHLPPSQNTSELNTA
CDK6/Cyclin D3, sequence (P30281 whole entry partner, species assumed): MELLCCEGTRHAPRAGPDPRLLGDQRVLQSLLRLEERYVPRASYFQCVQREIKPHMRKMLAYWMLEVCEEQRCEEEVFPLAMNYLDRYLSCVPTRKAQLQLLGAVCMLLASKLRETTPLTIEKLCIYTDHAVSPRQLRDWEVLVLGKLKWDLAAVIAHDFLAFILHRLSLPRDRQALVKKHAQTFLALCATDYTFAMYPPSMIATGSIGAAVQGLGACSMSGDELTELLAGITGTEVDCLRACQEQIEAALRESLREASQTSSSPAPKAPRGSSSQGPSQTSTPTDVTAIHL
The target in assay [4] is CDK9/cyclin T1 (Homo sapiens (Human), UniProt P50750). The assay is described as follows: Kinase activity assay (Caliper Mobility Shift Assay), CDK9/cyclin T1. The protocol:
as §1, §2

Broadly, the IC50 is the concentration at which inhibition is half-maximal.

CDK9/cyclin T1, sequence (P50750 whole entry, species assumed): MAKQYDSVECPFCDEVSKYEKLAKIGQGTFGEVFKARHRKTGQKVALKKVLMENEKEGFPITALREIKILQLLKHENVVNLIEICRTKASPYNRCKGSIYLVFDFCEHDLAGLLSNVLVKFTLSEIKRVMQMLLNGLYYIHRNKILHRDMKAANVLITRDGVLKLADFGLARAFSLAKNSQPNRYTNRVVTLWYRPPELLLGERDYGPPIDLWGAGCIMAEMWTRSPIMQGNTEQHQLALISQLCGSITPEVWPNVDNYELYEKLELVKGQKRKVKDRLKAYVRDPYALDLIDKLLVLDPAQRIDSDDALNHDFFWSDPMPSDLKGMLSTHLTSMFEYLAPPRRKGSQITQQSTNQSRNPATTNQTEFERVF
CDK9/cyclin T1, sequence (O60563 whole entry partner, species assumed): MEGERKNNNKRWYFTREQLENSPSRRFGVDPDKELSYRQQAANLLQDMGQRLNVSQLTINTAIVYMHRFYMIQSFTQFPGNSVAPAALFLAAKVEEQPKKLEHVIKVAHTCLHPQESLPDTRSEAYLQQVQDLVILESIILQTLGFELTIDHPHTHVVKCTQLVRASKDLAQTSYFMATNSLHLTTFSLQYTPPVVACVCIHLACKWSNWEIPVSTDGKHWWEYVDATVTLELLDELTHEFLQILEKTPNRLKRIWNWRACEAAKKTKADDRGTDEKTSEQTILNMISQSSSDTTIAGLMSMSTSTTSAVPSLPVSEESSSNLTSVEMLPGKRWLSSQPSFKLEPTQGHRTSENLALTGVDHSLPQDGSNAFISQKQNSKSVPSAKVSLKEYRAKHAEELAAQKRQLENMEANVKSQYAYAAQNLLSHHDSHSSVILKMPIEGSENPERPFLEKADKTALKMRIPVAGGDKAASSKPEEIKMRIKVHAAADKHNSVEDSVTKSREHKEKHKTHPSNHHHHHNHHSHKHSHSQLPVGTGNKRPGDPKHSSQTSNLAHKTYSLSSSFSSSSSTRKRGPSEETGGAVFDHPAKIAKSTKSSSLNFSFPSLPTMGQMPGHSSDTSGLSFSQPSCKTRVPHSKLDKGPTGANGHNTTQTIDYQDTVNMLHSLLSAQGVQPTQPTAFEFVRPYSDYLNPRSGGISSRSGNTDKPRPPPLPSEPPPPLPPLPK
CDK4/cyclin D3, sequence (P11802 whole entry, species assumed): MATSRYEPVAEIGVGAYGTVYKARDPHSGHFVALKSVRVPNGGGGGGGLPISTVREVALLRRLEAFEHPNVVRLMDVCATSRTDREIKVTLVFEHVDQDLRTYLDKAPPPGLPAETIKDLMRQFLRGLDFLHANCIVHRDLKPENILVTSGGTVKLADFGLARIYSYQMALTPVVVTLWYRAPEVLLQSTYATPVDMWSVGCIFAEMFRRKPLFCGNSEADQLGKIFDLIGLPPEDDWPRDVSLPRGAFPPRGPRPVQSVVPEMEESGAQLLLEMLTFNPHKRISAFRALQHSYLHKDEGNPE
CDK4/cyclin D3, sequence (P30281 whole entry partner, species assumed): as the sequence (P30281 whole entry partner, species assumed) above

Regarding `CC(C)n1nnc2ccc3cnc(N[C@H]4CC[C@H](N5CCN(CC6CCCC6)CC5)CC4)nc3c21` [II.8, N-((1R,4R)-4-(4-(cyclopentylmethyl)piperazin-1-yl)cyclo-hexyl)-1-isopropyl-1H-[1,2,3]triazolo[4,5-h]quinazolin-8-amine], the IC50 in assay [1] was over 500 nM; in assay [2] it was 43 nM; in assay [3], 37 nM; in assay [4] it was 11 nM.
The corresponding values for `CC(C)c1noc2ccc3cnc(N[C@H]4CC[C@H](NC5CCOCC5)CC4)nc3c12` [I.1, (1R,4R)-N^1-(9-isopropylisoxazolo[5,4-h]quinazolin-2-yl)-N^4-(tetrahydro-2H-pyran-4-yl)cyclohexane-1,4-diamine] are 42 nM, 32 nM, 36 nM and 25 nM.
Taken in the same sequence, the figures for `CC(C)n1nnc2ccc3cnc(N[C@H]4CC[C@H](NC5CCOCC5)CC4)nc3c21` [II.2, (1R,4R)-N^1-(1-isopropyl-1H-[1,2,3]triazolo[4,5-h]quinazolin-8-yl)-N^4-(tetrahydro-2H-pyran-4-yl)cyclohexane-1,4-diamine] were 20 nM, 16 nM, 22 nM and 8 nM.
Taken in the same sequence, the figures for `CC(C)c1noc2ccc3cnc(N[C@H]4CC[C@H](NC5CCNCC5)CC4)nc3c12` [I.2, (1R,4R)-N^1-(9-isopropylisoxazolo[5,4-h]quinazolin-2-yl)-N^4-(piperidin-4-yl)cyclohexane-1,4-diamine] were 12 nM, 22 nM, 26 nM and 16 nM.
As to `CC(C)n1nnc2ccc3cnc(N[C@H]4CC[C@H](NC5CCNCC5)CC4)nc3c21` [II.3, (1R,4R)-N^1-(1-isopropyl-1H-[1,2,3]triazolo[4,5-h]quinazolin-8-yl)-N^4-(piperidin-4-yl)cyclohexane-1,4-diamine], the concentration for half-maximal inhibition (IC50) in assay [1] amounted to 12 nM; in assay [2], 22 nM; in assay [3] it was 26 nM.

The record behind these values is patent US20230416271A1, “HETEROARYLQUINAZOLINE COMPOUNDS AS PROTEIN KINASE INHIBITORS” (CHENGDU CYNOGEN BIO-PHARMACEUTICAL TECHNOLOGY CO., LTD., priority 2020, published 2023).
